Several values for one entry are separate records, joined by “and”; a condition that tells them apart may be missing. Equal values may be shown once.
Legend:
[1] = tested on: neurons in cortex and hippocampus of MCAO/R mice; test: Nissl staining; format: in vivo, mouse
Protocol: Mice were anesthetized at 48 h after MCAO/R. Brain samples (bregma −2.06–1.94 mm) were collected and fixed by 4% paraformaldehyde for 12–18 h. Following sequential dehydration by 10%, 20%, and 30% sucrose, brains were put in frozen section embedding medium (SAKURA Tissue-Tek O.C.T. Compound, Japan) and cut into […] sections at the level of the frontal cortex (bregma: 1.0 to −1.94 mm) using a cryostat microtome (Leica CM1950). The sections were subsequently stained with Nissl staining.

BV2 microglia cells = test: CCK-8 cytotoxicity in BV2 cells; settings: CCK8 assay
mice = test: Acute toxicity test (single i.p. dose); format: in vivo, mouse
Protocol: To ensure that the safety of VK in vivo, acute toxicity test was performed. […] Clinical symptoms (temperature, change in skin, eye color change, general physique, body weight, diarrhea, sedation, and organ index) were recorded (Supplementary Table 3). […] Karyopyknosisa and the cellular swelling of the hepatocyte were moderate in the liver of mice treated with VK (96 and 384 mg/kg). […]
Acute toxicity test. Systemic acute toxicity test by peritoneal injection was performed according to the guideline provided by Center for Drug Evaluation and Research. In addition to the normal group, male mice were randomly divided into the treated groups received a single dose of 1.5 mg/kg, 6 mg/kg, 24 mg/kg, 96 mg/kg and 384 body weight of VK. Clinical signs of toxicity such as mortality, skin, eyes, fur, respiratory pattern , changes in general behavior and activity were individually observed. […]
day, the mice were anesthetized with 1.5% isoflurane in a mixture of 30% O2 and 69% N2O. Blood was collected from muse eyeballs and mixed with 3.2% sodium citrate at a v/v ratio of 1:9. Then, the blood was centrifuged at 3,000 rpm for 10 min.
The obtained plasma was analyzed using an automatic coagulation apparatus (CA1500).

[2] = tested on: MCAO/R mice, brain homogenate; test: Biochemical kits, oxidative stress in brain (SOD, MDA, LPO, glutathione); format: in vivo, mouse; settings: 48 h
Protocol: […] The brain was collected, weighed, and placed in a homogenizer for homogenization. Using 0.9% normal saline (NS) as a homogenization medium, a 10% tissue homogenate was prepared, centrifuged at 3500 rpm for 10 min, and the supernatant was taken. […] Kits for ATP, glutamic acid, glutathione, lactic acid, LPO, MDA, and SOD were purchased from Nanjingjiancheng Bioengineering Institute, and were measured as previously described for specification.

MCAO/R mice = test: Grip test; format: in vivo, mouse; design: grip test (Fig.2g): unit not given here; settings: for grip test (Fig.2g): individual animals
Protocol: The grip strength (The Chatillon® DFE Digital Force Gauge DFX-050) was used to evaluate the effects of VK on muscular incoordination of mice. The forelimbs of the mice were placed on the test grid and the mice were gently pulled after the animals were grasped and the force value when the claws of the animals were recorded was the grip value. The test was performed at 24 and 48 h after MCAO/R.

[3] = VK 1.5 mg/kg single i.p., n=5, 14 d observation
[4] = VK 6 mg/kg single i.p., n=6, 14 d observation
[5] = VK 24 mg/kg single i.p., n=6, 14 d observation
[6] = VK 96 mg/kg single i.p., n=6, 14 d observation
[7] = VK 384 mg/kg single i.p., n=6, 14 d observation

Gly-Arg-Pro-Hyp-Gly-Phe-Ser-Pro-Phe-Arg-Ile-Asp [VK, Vespakinin-M]
neuron morphology, Nissl staining [1]: morphologically intact neurons were broadly seen | concentrations at which VK inhibited growth of BV2 cells (BV2 microglia cells): 73.5 to 735 µM | Body weight (mice; [3]): Normal | Breathing difficulty (mice; [3]): Normal | Change In skin (mice; [3]): No effect | Coma (mice; [3]): Normal | Death (mice; [3]): Alive | Diarrhea (mice; [3]): Normal | Drowsiness (mice; [3]): Normal | Eye color change (mice; [3]): No effect | Organ index (mice; [3]): Normal | Sedation (mice; [3]): Normal | Temperature (mice; [3]): Normal | Tremor (mice; [3]): Normal | Body weight (mice; [4]): Normal | Breathing difficulty (mice; [4]): Normal | Change In skin (mice; [4]): No effect | Coma (mice; [4]): Normal | Death (mice; [4]): Alive | Diarrhea (mice; [4]): Normal | Drowsiness (mice; [4]): Normal | Eye color change (mice; [4]): No effect | Organ index (mice; [4]): Normal | Sedation (mice; [4]): Normal | Temperature (mice; [4]): Normal | Tremor (mice; [4]): Normal | Body weight (mice; [5]): Decline | Breathing difficulty (mice; [5]): Normal | Change In skin (mice; [5]): No effect | Coma (mice; [5]): Normal | Death (mice; [5]): Alive | Diarrhea (mice; [5]): Normal | Drowsiness (mice; [5]): Normal | Eye color change (mice; [5]): No effect | Organ index (mice; [5]): Normal | Sedation (mice; [5]): Normal | Temperature (mice; [5]): Normal | Tremor (mice; [5]): Normal | Body weight (mice; [6]): Decline | Breathing difficulty (mice; [6]): Normal | Change In skin (mice; [6]): No effect | Coma (mice; [6]): Normal | Death (mice; [6]): Alive | Diarrhea (mice; [6]): Normal | Drowsiness (mice; [6]): Normal | Eye color change (mice; [6]): No effect | Organ index (mice; [6]): Normal | Sedation (mice; [6]): Normal | Temperature (mice; [6]): Normal | Tremor (mice; [6]): Normal | liver index (mice; VK 384 mg/kg single i.p.): increased liver index | Body weight (mice; [7]): Decline | Breathing difficulty (mice; [7]): Normal | Change In skin (mice; [7]): No effect | Coma (mice; [7]): Normal | Death (mice; [7]): Alive | Diarrhea (mice; [7]): Normal | Drowsiness (mice; [7]): Normal | Eye color change (mice; [7]): No effect | Organ index (mice; [7]): Increased | Sedation (mice; [7]): Normal | Temperature (mice; [7]): Normal | Tremor (mice; [7]): Normal | Body weight (mice; VK 24, 96 and 384 mg/kg single i.p.): continued to lose weight until day 5 | index of brain, myocardium and kidney (mice; all treatment dose groups (1.5-384 mg/kg single i.p.)): no difference | safe multiple of the effective dose (150 μg/kg) (mice; mice): 640 times | safe doses of VK in acute toxicity tests (mice; mice, single i.p. dose): < 96 mg/kg | mortality (mice; single i.p. dose 1.5, 6, 24, 96 and 384 mg/kg, observed for 24 h): no mortality was observed | glutathione in brain, between groups [2]: no obvious difference | MDA and LPO content in brain cortex vs vehicle ([2]; VK 150 and 300 µg/kg): decreased content of MDA and LPO | SOD activity in brain cortex vs vehicle ([2]; VK 150 and 300 µg/kg): enhanced SOD activity | grip test (Fig.2g) (MCAO/R mice; VK 150 µg/kg i.p.): 103 and 99.5 and 136 and 78 and 61.1 and 99 and 115.7 | grip test (Fig.2g) (MCAO/R mice; VK 300 µg/kg i.p.): 116.6 and 26 and 19.5 and 56.2 and 63.2 and 77 and 80.9 | sensorimotor function, grip test (MCAO/R mice; VK 150 and 300 µg/kg i.p.): improved functional performance and ameliorated the sensorimotor asymmetry
